Results taken from ChEMBL document CHEMBL1151443, “Activity of the novel macrolide BAL19403 against ribosomes from erythromycin-resistant Propionibacterium acnes” (Antimicrob Agents Chemother, 2007).
Values after ≈ are worked out from the molar mass of the structure shown.

Tests used:
[1] = Inhibition of ribosomal activity in erythromycin-sensitive Escherichia coli BL21 S30 extracts assessed as inhibition of luciferase activity by transcriptional and translational assay; type: subcellular, Ribosome
Bacterial 70S ribosome [2] = experiment: Inhibition of ribosomal activity in erythromycin-sensitive Escherichia coli BL21 assessed as luciferase production by transcriptional and translational assay; type: subcellular
Bacterial 70S ribosome [3] = experiment: Displacement of [14C]ERY from erythromycin-sensitive Escherichia coli BL21 ribosome; type: subcellular
Bacterial 70S ribosome [4] = experiment: Inhibition of ribosomal activity in erythromycin-sensitive Propionibacterium acnes EG7NS assessed as luciferase production by transcriptional and translational assay; type: subcellular, Cutibacterium acnes
Bacterial 70S ribosome [5] = experiment: (§1) Inhibition of ribosomal activity in erythromycin-resistant Propionibacterium acnes GE4E carrying Erm(X) gene assessed as luciferase production by transcriptional and translational assay; type: subcellular, Cutibacterium acnes
[6] = target: Bacterial 70S ribosome (Bacteria) (UniProt P0A7V0+P60723+P0AG67+P0A7R5+P0A7R9+P0A7S3+P0A7S9+P0AG59+P0ADZ4+P0A7T3+P0AG63+P0A7T7+P0A7U3+P0A7U7+P68679+P0A7V3+P0A7V8+P0A7W1+P02358+P02359+P0A7W7+P0A7X3+P0A7J3+P0A7J7+P0AA10+P0ADY3+P02413+P0ADY7+P0AG44+P0C018+P0A7K6+P0A7L0+P0A7L3+P0AG48+P61175+P0ADZ0+P60624+P68919+P0A7L8+P0A7M2+P0A7M6+P60422+P0AG51+P0A7N1+P0A7M9+P0A7N4+P0A7N9+P0A7P5+P0A7Q1+Q2EEQ2+P0A7Q6+P60438+P62399+P0AG55+P0A7K2); experiment: as §1; type: subcellular; settings: Cutibacterium acnes, concentration not given here
Bacterial 70S ribosome [7] = experiment: Inhibition of ribosomal activity in erythromycin-resistant Propionibacterium acnes P95 with G2057A mutation in domain V of 23S rRNA assessed as luciferase production by transcriptional and translational assay; type: subcellular, Cutibacterium acnes
Bacterial 70S ribosome [8] = experiment: Inhibition of ribosomal activity in erythromycin-resistant Propionibacterium acnes SW54EA with A2058G mutation in domain V of 23S rRNA assessed as luciferase production by transcriptional and translational assay; type: subcellular, Cutibacterium acnes
Cutibacterium acnes [9] = experiment: Antibacterial activity against erythromycin-resistant Propionibacterium acnes SW54EA with 23S rRNA A2058G mutant; type: functional
Cutibacterium acnes [10] = experiment: Antibacterial activity against erythromycin-resistant Propionibacterium acnes P95 with 23S rRNA G2057A mutant; type: functional
Cutibacterium acnes [11] = experiment: Antibacterial activity against erythromycin-resistant Propionibacterium acnes GE4E carrying Erm(X) gene; type: functional
Cutibacterium acnes [12] = experiment: Antibacterial activity against erythromycin-resistant Propionibacterium acnes with A2058G mutation in domain V of 23S rRNA; type: functional
Cutibacterium acnes [13] = experiment: Antibacterial activity against erythromycin-sensitive Propionibacterium acnes EG7NS; type: functional
Escherichia coli = experiment: Antibacterial activity against Escherichia coli BL21; type: functional
Bacterial 70S ribosome [14] = experiment: Displacement of [14C]ERY from ribosome in erythromycin-resistant Propionibacterium acnes P95 with G2057A mutation in domain V of 23S rRNA; type: subcellular, Cutibacterium acnes
Bacterial 70S ribosome [15] = experiment: Displacement of [14C]ERY from erythromycin-sensitive Propionibacterium acnes EG7NS ribosome; type: subcellular, Cutibacterium acnes
Cutibacterium acnes [16] = experiment: Antibacterial activity against erythromycin-resistant Propionibacterium acnes with A2059 mutation in domain V of 23S rRNA; type: functional
Cutibacterium acnes [17] = experiment: Antibacterial activity against erythromycin-resistant Propionibacterium acnes with G2057A mutation in domain V of 23S rRNA; type: functional

SMILES	IC50 [1] [nM]	IC50 (Bacterial 70S ribosome [2]) [nM]	Kd (Bacterial 70S ribosome [3]) [nM]	IC50 (Bacterial 70S ribosome [4]) [nM]	IC50 (Bacterial 70S ribosome [5]) [nM]	inhibition [6] [%]	IC50 (Bacterial 70S ribosome [7]) [nM]	IC50 (Bacterial 70S ribosome [8]) [nM]	MIC (Cutibacterium acnes [9]) [µg/mL]	MIC (Cutibacterium acnes [10]) [µg/mL]	MIC (Cutibacterium acnes [11]) [µg/mL]	MIC (Cutibacterium acnes [12]) [µg/mL]	MIC (Cutibacterium acnes [13]) [µg/mL]	MIC (Escherichia coli) [µg/mL]	Kd (Bacterial 70S ribosome [14]) [nM]	Kd (Bacterial 70S ribosome [15]) [nM]	MIC (Cutibacterium acnes [16]) [µg/mL]	MIC (Cutibacterium acnes [17]) [µg/mL]
CC[C@H]1OC(=O)[C@H](C)[C@@H](O[C@H]2C[C@@](C)(OC)[C@@H](O)[C@H](C)O2)[C@H](C)[C@@H](O[C@@H]2O[C@H](C)C[C@H](N(C)C)[C@H]2O)[C@](C)(OC)C[C@@H](C)C(=O)[C@H](C)[C@H]2[C@H](SCCn3cnc4cccnc43)C(=O)O[C@@]21C	850	420	26	110	190	48	120	260										
CC[C@H]1OC(=O)[C@H](C)[C@@H](O[C@H]2C[C@@](C)(OC)[C@@H](O)[C@H](C)O2)[C@H](C)[C@@H](O[C@@H]2O[C@H](C)C[C@H](N(C)C)[C@H]2O)[C@](C)(O)C[C@@H](C)C(=O)[C@H](C)[C@@H](O)[C@]1(C)O [ERYTHROMYCIN]	2130	760	11	170	1900	52	2200	87000	> 512	4 (≈ 5.45 µM)	> 512	> 128	≤ 0.06	128 (≈ 174 µM)	> 2100	29	> 128	1 (≈ 1.36 µM)
